Converted amounts (≈) assume the structure as drawn.
Legend:
[1] = tested on: red blood cell pyruvate kinase; conditions: over a broad range of PKLR genotypes; cited from earlier work
[2] = molecular target: PKM2 (Homo sapiens, UniProt P14618); conditions: PKM2 activation; cited from earlier work
[3] = Pharmacokinetic analysis of the KHKi in vivo; set-up: species or system mice; conditions: mouse
[4] = molecular target: T1, KHK (Homo sapiens, UniProt P50053); experiment: 13C NMR of [2-13C]F1P in HepG2 cell extract with KHKi treatment; assay type: cell-based; conditions: treatment at 4 hr in vitro
T1 construct: endogenous in cells; host or cells: HepG2 cells
T1 sequence (P50053 1-298): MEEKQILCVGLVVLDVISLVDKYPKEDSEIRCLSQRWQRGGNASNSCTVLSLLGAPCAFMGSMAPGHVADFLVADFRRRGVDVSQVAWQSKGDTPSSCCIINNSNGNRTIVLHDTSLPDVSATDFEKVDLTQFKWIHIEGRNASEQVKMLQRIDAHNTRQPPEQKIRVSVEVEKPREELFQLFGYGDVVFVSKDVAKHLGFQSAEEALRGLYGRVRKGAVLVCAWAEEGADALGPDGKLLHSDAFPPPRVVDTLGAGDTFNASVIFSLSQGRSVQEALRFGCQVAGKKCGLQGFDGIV
Description: FIGS. 11A-11C provide fructose converted to fructose-1-phosphate (F1P) and later to lactate in vivo measured in transformed hepatocytes (HepG2 cells) using [2-^13C] fructose. FIG. 11A provides ^13C NMR spectra of media containing [2-^13C] fructose exposed to HepG2 cells. FIG. 11B provides a quantification of fructose consumption by HepG2.
Translation of novel hyperpolarized probes into in vivo animal models represents a great technical advance in the exploration of the modulate metabolism induced by GLUT5-OV. Using the optimized probe formulation for HP fructose, the metabolic conversion of fructose is explored in vivo in the liver of wild type B6 mice, as previously shown. […] [2-^13C]F1P resonates downfield of the C2 pyranose resonance; in Example 1, this conversion was measured in transformed hepatocytes (HepG2 cells, FIG. 11) using [2-^13C] fructose. When further converted, C2 lactate is generated (resonating at 70 ppm) from fructose and this has been detected previously in vivo derived from HP glucose (Rodrigues et al. Nat Med 20, 93-97 (2014)) and pyruvate (Park et al. Magn Reson Med 75, 973-984 (2016)). All imaging studies are conducted under IACUC-approved protocol #13-12-019. Briefly, mice are imaged using a 3T Bruker MRI equipped with a dual tune ^1H/^13C volume coil. […] This is then extracted and labeled metabolites are measured by LC/MS and NMR. […]

[5] = Blood, tumor and liver fructose after IP injection of fructose in B16 tumor bearing mice; assay type: in vivo
Protocol: Further this supports that HP fructose reaches the tumor and provides a platform for imaging.
In order to determine the effect of fructose addition into GLUT5-OV T cells in vivo, the assay is optimized for delivering fructose into the tumor microenvironment. Specifically, three methods are tested, including: (i) intraperitoneal (IP) and (ii) intravenous (IV) injections of fructose, and (iii) water bottle with high-fructose corn syrup (HFCS). IP and IV injections (4 g/kg) are conducted daily and 25% HFCS in water is provided for three weeks; twice a week during this time the fructose level in circulating blood is measured and an endpoint tumor fructose measurement is taken. A B16 melanoma mouse model is utilized. Briefly, B16 cells (2×10^5) are engrafted subcutaneously into C57BL/6 mice and assayed on Day 7 post-tumor-engraftment. In a second cohort of mice, with the same conditions, co-administration of the KHKi^53 used in Example 3 is performed to block the uptake of the liver and small intestine (the predominant sites of fructose uptake and subsequent phosphorylation by KHK). As shown in Example 1, a single IP injection of fructose was piloted and both the tumors and liver were extracted after 1 hr (FIG. 12). […] Given this PK data, this dose of KHKi is explored using multiple routes of delivery. Specially, a dose of 10 mg/kg was used and administered IP at the same time as the fructose delivery. Fructose concentration is measured in the circulating blood as well as the endpoint tumor with all 3 delivery methods (n=10 mice per group, total of 80 mice) utilizing a standard kit assay. See Goncalves et al. Science 363, 1345-1349 (2019). Taken together, these experiments provide the necessary data to determine which fructose delivery method is best for the remaining experiments.
Results, potential challenges and alternative solutions: In some embodiments, high dose injections of fructose allows for a transient but substantial increase in blood as well as tumor fructose levels (>2 mM). It was found by Applicant that with a single IP injection of fructose the blood concentration can be raised to >10 mM and tumor concentration can be raised to >2 mM. The dosing schedule relative to T-cell action is further optimized. It is possible that the fructose levels of tumors can not be further elevated in vivo due to the action of the liver and gluconeogenesis. […] This is readily in the range of detection for HP MRI. It is possible that HP lactate can not be detected in tumors from fructose due to the cellularity. At the minimum, however, HP F6P can be detected, which was previously detected in tumors that overexpress GLUT5; this informs on the degree of fructose metabolism into glycolysis. […]

[6] = PBS, pH 7.4; cited from earlier work
[7] = Hyperpolarized lifetime and polarization of HP fructose probes; assay type: physicochemical
Description: FIG. 9A provides the mechanism for transport by GLUT5 and the first step of metabolism of fructose to fructofuranose-6-phosphate by hexokinase. FIG. 9B provides a T2-weighted image of a transgenic model of prostate cancer (TRAMP) mouse with tumor only on the right side of the prostate. Metabolic images of total hyperpolarized [2-^13C] fructose resonances (FIG. 9C) and the composite 0-fructofuranose-6-phosphate and β-fructofuranose (FIG. 9D) are shown overlaid on the T2 weighted image. Resonances corresponding to the β-fructopyranose and composite p-fructofuranose-6-phosphate and p-fructofuranose are shown in the corresponding spectral array (FIG. 9E). FIGS. 9A-9E adapted from Keshari et al. J Am Chem Soc. 2009 Dec. 9; 131(48):17591-6. […] An unassigned, spurious, low signal-to-noise resonance appears at 115 ppm. FIG. 9F provides a synthetic scheme for U-^2H-[2-^13C] fructose. The C2 is annotated by an C. FIG. 9G provides representative dynamic spectra of HP [2-^13C] fructose dissolved in D2O and HP U-^2H-[2-^13C] fructose dissolved in D20. Both solutions were approximately 30 mM and spectra acquired using 5° flip angle every 3 s.
Enhancement of hyperpolarized lifetimes using D2O solvation and application to HP fructose: In previous experiments, the necessary strategies and combined methods to develop not only novel probes for HP MRI but also bolus tracing experiments to confirm biochemistry in vivo. See Salamanca-Cardona et al. Cell Metab 26, 830-841 e833 (2017). While many molecular strategies have been developed for HP MRI, they generally suffer from short lifetimes (≤10 s) making flux through pathways of interest difficult to visualize in vivo. […] See Keshari et al. J Am Chem Soc 131, 17591-17596 (2009). In recent work, It was shown by the Applicant that utilization of rapid exchange between H2O and D2O can dramatically increase the lifetimes of the HP probes by greatly reducing dipolar relaxation. See Cho et al. J Magn Reson 295, 57-62 (2018). As such, a synthesis was developed for [2-^13C,U-^2H7] fructose at gram scale (FIG. 9F) as well as a preparation to hyperpolarize it. […]

[8] = single IP injection of fructose

Chain of PKM2 (P14618 whole entry): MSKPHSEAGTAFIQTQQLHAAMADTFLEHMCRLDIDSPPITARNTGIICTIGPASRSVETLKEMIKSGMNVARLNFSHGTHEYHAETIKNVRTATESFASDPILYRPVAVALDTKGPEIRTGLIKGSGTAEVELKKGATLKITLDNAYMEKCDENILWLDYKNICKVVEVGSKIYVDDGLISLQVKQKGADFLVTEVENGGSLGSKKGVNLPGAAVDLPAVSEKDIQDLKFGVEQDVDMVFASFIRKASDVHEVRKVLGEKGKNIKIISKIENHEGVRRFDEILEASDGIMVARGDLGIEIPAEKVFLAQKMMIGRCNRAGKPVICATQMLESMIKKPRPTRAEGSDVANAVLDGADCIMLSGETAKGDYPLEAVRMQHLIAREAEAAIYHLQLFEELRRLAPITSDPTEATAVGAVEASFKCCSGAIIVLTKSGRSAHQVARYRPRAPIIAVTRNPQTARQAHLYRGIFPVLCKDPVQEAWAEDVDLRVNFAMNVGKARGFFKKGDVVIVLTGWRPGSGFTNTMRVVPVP

O=C(c1ccc(NS(=O)(=O)c2cccc3cccnc23)cc1)N1CCN(CC2CC2)CC1 [AG 348]
effect on red blood cell pyruvate kinase [1]: increases enzymatic activity, protein stability, and ATP levels

Nc1cccc(S(=O)(=O)N2CCCN(S(=O)(=O)c3ccc4c(c3)OCCO4)CC2)c1 [DASA-58]
AC90 [2]: 0.68 µM

N#Cc1c(C(F)(F)F)cc(N2CCN(CCO)CC2)nc1N1CCCC(CO)C1 (centres unmarked) [KHKi, 6-(4-(2-Hydroxyethyl)piperazin-1-yl)-2-(3-(hydroxymethyl)-piperidin-1-yl)-4-(trifluoromethyl)nicotinonitrile]
Cmax ([3]; 10 mg/kg, approximate conversion): ~1 µM
Cmax ([3]; KHKi 10 mg/kg): 0.475 µg/mL
half-life ([3]; KHKi 10 mg/kg): 2 h
change in F1P [4]: decrease in F1P
extension of blood half-life of fructose ([5]; first attempt with the KHKi): 50%
tumor fructose with KHKi ([5]; single dose of KHKi with single IP injection of fructose, tumors extracted after 1 hr): further enhanced

Cn1c2cc([S+](C)[O-])sc2c2cnn(Cc3cccc(N)c3)c(=O)c21 (centres unmarked) [TEPP-46]
aqueous solubility [6]: 79.5 µM (≈ 29.6 µg/mL)

[2H]C([2H])(O)[13C](=O)[C@@]([2H])(O)[C@]([2H])(O)[C@]([2H])(O)C([2H])([2H])O [[2-^13C,U-^2H7] fructose]
achieved polarization [7]: greater than 10%
hyperpolarized lifetime ([7]; D2O solvation): 1.5 min
lifetime relative to previously shown ([7]; versus HP [2-13C] fructose): 6 times

O=C(CO)[C@@H](O)[C@H](O)[C@H](O)CO [fructose]
blood concentration of fructose [5, 8]: > 10000 µM
tumor concentration of fructose [5, 8]: > 2 mM
